Data: patent US6737383B1, “Herbicidal oxadiazolidines” (priority 1999, dated 2004)

Legend:
[1] = test system: bedstraw; experiment: Test B pre/postemergence bedstraw; assay type: in vivo, Galium aparine
How it was run: (§1)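 Test chemicals in a non-phytotoxic solvent mixture with surfactant were sprayed preemergence onto planted seeds and postemergence onto plants 2 to 18 cm tall (1- to 4-leaf stage). After twelve to sixteen days in a greenhouse, injury was visually rated against untreated controls from 0 (no effect) to 10 (complete control).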

[2] = test system: blackgrass; experiment: Test B pre/postemergence blackgrass; assay type: in vivo, Alopecurus myosuroides
How it was run: as §1

[3] = test system: giant foxtail; experiment: Test B pre/postemergence giant foxtail; assay type: in vivo, Setaria faberii; settings: for Giant foxtail plant response rating: scale of 0 to 10 where 0 is no effect and 10 is complete control
How it was run: as §1

[4] = test system: morningglory; experiment: Test B pre/postemergence morningglory; assay type: in vivo, Ipomoea hederacea; settings: for Morningglory plant response rating: scale of 0 to 10 where 0 is no effect and 10 is complete control
How it was run: as §1

[5] = test system: pigweed; experiment: Test B pre/postemergence pigweed; assay type: in vivo, Amaranthus retroflexus; settings: for Redroot pigweed plant response rating: scale of 0 to 10 where 0 is no effect and 10 is complete control
How it was run: as §1

[6] = test system: rape; experiment: Test B pre/postemergence rape; assay type: in vivo, Brassica napus; settings: for Rape plant response rating: scale of 0 to 10 where 0 is no effect and 10 is complete control
How it was run: as §1

[7] = test system: soybean; experiment: Test B pre/postemergence soybean; assay type: in vivo, Glycine max; settings: for Soybean plant response rating: scale of 0 to 10 where 0 is no effect and 10 is complete control
How it was run: as §1

[8] = test system: sugar beet; experiment: Test B pre/postemergence sugar beet; assay type: in vivo, Beta vulgaris; settings: for Sugarbeets plant response rating: scale of 0 to 10 where 0 is no effect and 10 is complete control
How it was run: as §1

[9] = test system: velvetleaf; experiment: Test B pre/postemergence velvetleaf; assay type: in vivo, Abutilon theophrasti; settings: for Velvetleaf plant response rating: scale of 0 to 10 where 0 is no effect and 10 is complete control
How it was run: as §1

[10] = test system: wheat; experiment: Test B pre/postemergence wheat; assay type: in vivo, Triticum aestivum; settings: for Wheat plant response rating: scale of 0 to 10 where 0 is no effect and 10 is complete control
How it was run: as §1

[11] = test system: wild oat; experiment: Test B pre/postemergence wild oat; assay type: in vivo, Avena fatua; settings: for Wild oats plant response rating: scale of 0 to 10 where 0 is no effect and 10 is complete control
How it was run: as §1

[12] = test system: purple nutsedge; experiment: Test B pre/postemergence purple nutsedge; assay type: in vivo, Cyperus rotundus; settings: for Nutsedge plant response rating: scale of 0 to 10 where 0 is no effect and 10 is complete control
How it was run: as §1

[13] = test system: rice; experiment: Test B flood test rice; assay type: in vivo, Oryza sativa
How it was run: (§2)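 Plants were grown to the 2-leaf stage before treatment with test chemical, then held in a greenhouse for twelve to sixteen days. Injury was visually rated against untreated controls on a 0–10 scale, where 0 is no effect and 10 is complete control.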

[14] = test system: smallflower flatsedge; experiment: Test B flood test smallflower flatsedge; assay type: in vivo, Cyperus difformis
How it was run: as §2

[15] = test system: duck salad; experiment: Test B flood test duck salad; assay type: in vivo, Heteranthera limosa
How it was run: as §2

[16] = test system: bamyardgrass; experiment: Test B flood test barnyardgrass; assay type: in vivo, Echinochloa crus-galli
How it was run: as §2

[17] = Postemergence, Rate 125 g/ha, scale 0 to 10, 0 is no effect, 10 is complete control
[18] = Preemergence, Rate 62 g/ha, scale 0 to 10 (0 no effect, 10 complete control)
[19] = Preemergence, Rate 250 g/ha, scale of 0 to 10 where 0 is no effect and 10 is complete control
[20] = Preemergence, Rate 500 g/ha, scale of 0 to 10 where 0 is no effect and 10 is complete control
[21] = Rate 62 g/ha, Postemergence, scale of 0 to 10 where 0 is no effect and 10 is complete control
[22] = Rate 250 g/ha, Postemergence, scale of 0 to 10 where 0 is no effect and 10 is complete control
[23] = Rate 500 g/ha, Postemergence, scale 0 to 10, 0 no effect, 10 complete control
[24] = Postemergence (flood test), Rate 125 g/ha, scale 0 to 10, 0 is no effect, 10 is complete control
[25] = Rate 62 g/ha, Postemergence (flood test species), scale of 0 to 10 where 0 is no effect and 10 is complete control
[26] = Rate 500 g/ha, listed under Postemergence (flood test species), scale 0 to 10, 0 no effect, 10 complete control

With Cc1cccc(C(C)(C)C)c1-n1c(=O)on(C(=O)N(c2ccc(F)cc2)C(C)C)c1=O [Compound 359] the “Plant response rating, Bedstraw” value [1, 17] was 0, the “Plant response rating, Bedstraw” value [1, 18] was 0 and the “Bedstraw plant response rating (0 to 10 scale)” value ([1]; Preemergence, Rate 125 g/ha) was 0. The “Bedstraw plant response rating” value [1, 19] was 0, the “Bedstraw plant response rating” value [1, 20] was 0 and the “Bedstraw plant response rating” value [1, 21] was 0. The “Plant response rating, Bedstraw” value [1, 22] was 0, the “Plant response rating, Bedstraw” value [1, 23] was 0 and the “Plant response rating, Blackgrass” value [2, 17] was 0. The “Plant response rating, Blackgrass” value [2, 18] was 0, the “Blackgrass plant response rating (0 to 10 scale)” value ([2]; Preemergence, Rate 125 g/ha) was 0 and the “Blackgrass plant response rating” value [2, 19] was 0. For the same molecule, the “Blackgrass plant response rating” value [2, 20] was 0, the “Blackgrass plant response rating” value [2, 21] was 0 and the “Plant response rating, Blackgrass” value [2, 22] was 0. For the same molecule, the “Plant response rating, Blackgrass” value [2, 23] was 2, the “Plant response rating, Giant foxtail” value [3, 17] was 0 and the “Plant response rating, Giant foxtail” value [3, 18] was 0. The “Giant foxtail plant response rating (0 to 10 scale)” value ([3]; Preemergence, Rate 125 g/ha) was 0, the “Giant foxtail plant response rating” value ([3]; Preemergence, Rate 250 g/ha) was 0 and the “Giant foxtail plant response rating” value ([3]; Preemergence, Rate 500 g/ha) was 0. The “Giant foxtail plant response rating” value ([3]; Rate 62 g/ha, Postemergence) was 0, the “Plant response rating, Giant foxtail” value [3, 23] was 0 and the “Plant response rating, Morningglory” value [4, 17] was 0. For the same molecule, the “Plant response rating, Morningglory” value [4, 18] was 0, the “Morningglory plant response rating (0 to 10 scale)” value ([4]; Preemergence, Rate 125 g/ha) was 0 and the “Morningglory plant response rating” value ([4]; Preemergence, Rate 250 g/ha) was 0. For the same molecule, the “Morningglory plant response rating” value ([4]; Preemergence, Rate 500 g/ha) was 0, the “Morningglory plant response rating” value ([4]; Rate 62 g/ha, Postemergence) was 0 and the “Plant response rating, Morningglory” value [4, 23] was 0. The “Plant response rating, Redroot pigweed” value [5, 17] was 0, the “Plant response rating, Redroot pigweed” value [5, 18] was 0 and the “Redroot pigweed plant response rating (0 to 10 scale)” value ([5]; Preemergence, Rate 125 g/ha) was 0. The “Redroot pigweed plant response rating” value ([5]; Preemergence, Rate 250 g/ha) was 0, the “Redroot pigweed plant response rating” value ([5]; Preemergence, Rate 500 g/ha) was 0 and the “Redroot pigweed plant response rating” value ([5]; Rate 62 g/ha, Postemergence) was 0. For the same molecule, the “Plant response rating, Redroot pigweed” value [5, 23] was 0, the “Plant response rating, Rape” value [6, 17] was 0 and the “Plant response rating, Rape” value [6, 18] was 0. The “Rape plant response rating (0 to 10 scale)” value ([6]; Preemergence, Rate 125 g/ha) was 0, the “Rape plant response rating” value ([6]; Preemergence, Rate 250 g/ha) was 0 and the “Rape plant response rating” value ([6]; Preemergence, Rate 500 g/ha) was 0. The “Rape plant response rating” value ([6]; Rate 62 g/ha, Postemergence) was 0, the “Plant response rating, Rape” value [6, 23] was 0 and the “Plant response rating, Soybean” value [7, 17] was 2. For the same molecule, the “Plant response rating, Soybean” value [7, 18] was 0, the “Soybean plant response rating (0 to 10 scale)” value ([7]; Preemergence, Rate 125 g/ha) was 0 and the “Soybean plant response rating” value ([7]; Preemergence, Rate 250 g/ha) was 0. The “Soybean plant response rating” value ([7]; Preemergence, Rate 500 g/ha) was 0, the “Soybean plant response rating” value ([7]; Rate 62 g/ha, Postemergence) was 0 and the “Plant response rating, Soybean” value [7, 23] was 3. For the same molecule, the “Plant response rating, Sugarbeets” value [8, 17] was 0, the “Plant response rating, Sugarbeets” value [8, 18] was 0 and the “Sugarbeets plant response rating (0 to 10 scale)” value ([8]; Preemergence, Rate 125 g/ha) was 0. For the same molecule, the “Sugarbeets plant response rating” value ([8]; Preemergence, Rate 250 g/ha) was 0, the “Sugarbeets plant response rating” value ([8]; Preemergence, Rate 500 g/ha) was 0 and the “Sugarbeets plant response rating” value ([8]; Rate 62 g/ha, Postemergence) was 0. For the same molecule, the “Plant response rating, Sugarbeets” value [8, 23] was 0, the “Plant response rating, Velvetleaf” value [9, 17] was 0 and the “Plant response rating, Velvetleaf” value [9, 18] was 0. The “Velvetleaf plant response rating (0 to 10 scale)” value ([9]; Preemergence, Rate 125 g/ha) was 0, the “Velvetleaf plant response rating” value ([9]; Preemergence, Rate 250 g/ha) was 0 and the “Velvetleaf plant response rating” value ([9]; Preemergence, Rate 500 g/ha) was 0. For the same molecule, the “Velvetleaf plant response rating” value ([9]; Rate 62 g/ha, Postemergence) was 0, the “Plant response rating, Velvetleaf” value [9, 23] was 2 and the “Plant response rating, Wheat” value [10, 17] was 0. The “Plant response rating, Wheat” value [10, 18] was 0, the “Wheat plant response rating (0 to 10 scale)” value ([10]; Preemergence, Rate 125 g/ha) was 0 and the “Wheat plant response rating” value ([10]; Preemergence, Rate 250 g/ha) was 0. The “Wheat plant response rating” value ([10]; Preemergence, Rate 500 g/ha) was 0, the “Wheat plant response rating” value ([10]; Rate 62 g/ha, Postemergence) was 0 and the “Plant response rating, Wheat” value [10, 23] was 2. The “Plant response rating, Wild oats” value [11, 17] was 0, the “Plant response rating, Wild oats” value [11, 18] was 0 and the “Wild oats plant response rating (0 to 10 scale)” value ([11]; Preemergence, Rate 125 g/ha) was 0. For the same molecule, the “Wild oats plant response rating” value ([11]; Preemergence, Rate 250 g/ha) was 0, the “Wild oats plant response rating” value ([11]; Preemergence, Rate 500 g/ha) was 0 and the “Wild oats plant response rating” value ([11]; Rate 62 g/ha, Postemergence) was 0. The “Plant response rating, Wild oats” value [11, 23] was 0, the “Plant response rating, Nutsedge” value [12, 17] was 0 and the “Plant response rating, Nutsedge” value [12, 18] was 0. The “Nutsedge plant response rating (0 to 10 scale)” value ([12]; Preemergence, Rate 125 g/ha) was 0, the “Nutsedge plant response rating” value ([12]; Preemergence, Rate 250 g/ha) was 0 and the “Nutsedge plant response rating” value ([12]; Preemergence, Rate 500 g/ha) was 0. For the same molecule, the “Nutsedge plant response rating” value ([12]; Rate 62 g/ha, Postemergence) was 0, the “Plant response rating, Nutsedge” value [12, 23] was 0 and the “Plant response rating, Rice” value [13, 24] was 0. For the same molecule, the “Rice plant response rating” value [13, 25] was 0, the “Plant response rating, Rice” value [13, 26] was 0 and the “Plant response rating, S. Flatsedge” value [14, 24] was 0. The “S. Flatsedge plant response rating” value [14, 25] was 0, the “Plant response rating, S. Flatsedge” value [14, 26] was 0 and the “Plant response rating, Ducksalad” value [15, 24] was 0. The “Ducksalad plant response rating” value [15, 25] was 0, the “Plant response rating, Ducksalad” value [15, 26] was 0 and the “Plant response rating, Barnyardgrass” value [16, 24] was 0. For the same molecule, the “Barnyardgrass plant response rating” value [16, 25] was 0, the “Plant response rating, Barnyardgrass” value ([16]; Rate 250 g/ha, Postemergence (flood test species), scale of 0 to 10 where 0 is no effect and 10 is complete control) was 0 and the “Plant response rating, Barnyardgrass” value [16, 26] was 0.
